Source: ChEMBL document CHEMBL4190244, “Perylenyltriazoles inhibit reproduction of enveloped viruses” (Eur J Med Chem, 2017)
pEC50: −log10 of the molar value.

How the values were obtained:
[1] = tested on: Tick-borne encephalitis virus; test: Antiviral activity against TBEV Absettarov infected in PEK cells preincubated simultaneously with cells and virus for 1 hr with shaking every 15 to 20 mins measured after 6 days by gentian violet-staining based assay; assay type: functional, organism-based
[2] = Cytotoxicity against PEK cells after 24 hrs; assay type: cell-based, Sus scrofa; settings: pig
[3] = Cytotoxicity against PEK cells after 7 days; assay type: cell-based, Sus scrofa; settings: pig

Row | Structure (SMILES) | pEC50 [1] | CC50 at 24 h [2] | CC50 at 168 h [3]
1 | O=c1[nH]c(=O)n([C@H]2C[C@H](O)[C@@H](CO)O2)cc1-n1cc(-c2ccc3c4cccc5cccc(c6cccc2c63)c54)nn1 | 7.42 | > 50 µM | > 50 µM
2 | O=c1[nH]c(=O)n([C@@H]2O[C@H](CO)[C@@H](O)[C@H]2O)cc1-n1cc(-c2ccccc2)nn1 | < 4.30 | > 50 µM | > 50 µM
3 | O=c1[nH]c(=O)n([C@@H]2O[C@H](CO)[C@@H](O)[C@H]2O)cc1-n1cc(-c2ccc3c4cccc5cccc(c6cccc2c63)c54)nn1 | 7.51 | > 50 µM | > 50 µM
4 | OCCn1cc(-c2cc3cccc4c5cccc6cccc(c(c2)c34)c65)nn1 | 7.64 | > 50 µM | > 50 µM
5 | O=c1[nH]c(=O)n([C@H]2C[C@H](O)[C@@H](CO)O2)cc1-n1cc(-c2cc3cccc4c5cccc6cccc(c(c2)c34)c65)nn1 | 7.22 | > 50 µM | > 50 µM
6 | OCCn1cc(-c2ccc3c4cccc5cccc(c6cccc2c63)c54)nn1 | 7.00 | > 50 µM | > 50 µM
7 | O=c1[nH]c(=O)n([C@@H]2O[C@H](CO)[C@@H](O)[C@H]2O)cc1-n1cc(-c2cc3cccc4c5cccc6cccc(c(c2)c34)c65)nn1 | 7.22 | > 50 µM | > 50 µM
8 | O=c1[nH]c(=O)n([C@H]2C[C@H](O)[C@@H](CO)O2)cc1-n1cc(-c2ccccc2)nn1 | < 4.30 | > 50 µM | > 50 µM
